For test [1], the target named is CHIP-TEAD4 ternary complex (Homo sapiens, UniProt Q15561+Q9UNE7). The note with it: SPR ABA, Rmax compared with expected response.
Test [2] addresses CHIP-PPIA ternary complex (Homo sapiens, UniProt P62937+Q9UNE7). The following applies: SPR ABA, immobilized PPIA, 10 μM Helicon.
Test [3] deals with VHL-ELOBC (Homo sapiens, UniProt P40337+Q15369+Q15370). The note with it: competition FP, 15 nM VHL-ELOBC, 5 nM HXC78, 1 h room temperature, n = 2.

Each structure is given as a SMILES string.

Take `CC(=O)N1CCC[C@H]1C(=O)N[C@H](C(=O)N1CCC[C@H]1C(=O)N[C@@H](Cc1ccccc1)C(=O)N[C@@H](Cc1ccccc1)C(=O)N[C@@H](Cc1c[nH]c2ccccc12)C(=O)N[C@@H](CCC(=O)O)C(=O)N[C@H]1CSCC(=O)Nc2ccc(cc2)NC(=O)CSC[C@@H](C(=O)N[C@H](C(=O)N[C@@H](C)C(=O)N2CCC[C@H]2C(=O)N[C@@H](CCCNC(=N)N)C(=O)N[C@H](C(=O)N[C@@H](CCC(N)=O)C(N)=O)C(C)C)[C@@H](C)O)NC(=O)[C@H]([C@@H](C)O)NC(=O)[C@H](C)NC(=O)[C@H](C)NC(=O)[C@H](C)NC(=O)[C@H](Cc2ccccc2)NC(=O)[C@H](CCC(N)=O)NC1=O)[C@@H](C)O` [Helicon H323]: the “amount of ternary complex formed, CHIP and TEAD4” value in test [1] is 65%.

As for `CC(=O)N1CCC[C@H]1C(=O)N[C@@H](C)C(=O)N[C@@H](CCC(N)=O)C(=O)N[C@@H](CC(=O)O)C(=O)N[C@@H](CC(=O)O)C(=O)N[C@@H](Cc1c[nH]c2ccccc12)C(=O)N[C@@H](CO)C(=O)N[C@H]1CSCC(=O)Nc2ccc(cc2)NC(=O)CSC[C@@H](C(=O)N[C@@H](CCC(=O)O)C(=O)N[C@@H](CC(N)=O)C(=O)N[C@@H](Cc2ccc(O)cc2)C(=O)N[C@H](C(=O)N[C@@H](CCCNC(=N)N)C(=O)N[C@H](C(N)=O)C(C)C)C(C)C)NC(=O)[C@H](CC(C)C)NC(=O)[C@H](Cc2ccc(O)cc2)NC(=O)[C@H](C)NC(=O)[C@H](C)NC(=O)[C@H](CCC(=O)O)NC(=O)[C@H](C(C)C)NC1=O` [Helicon H326], the “ternary complex formation with CHIP and PPIA, of the expected response” value in test [2] amounted to 3%.

Consider `CC[C@H](C)[C@H](NC(=O)[C@@H](NC(=O)CNC(=O)[C@H](CC(=O)O)NC(=O)[C@@H](NC(=O)[C@H](Cc1c[nH]c2ccccc12)NC(=O)[C@@H]1CSCC(=O)Nc2ccc(cc2)NC(=O)CSC[C@H](NC(=O)[C@H](CCSC)NC(=O)[C@@H]2CCCN2C(=O)[C@H](C)NC(=O)[C@H](CC(C)C)NC(=O)[C@H](CCSC)NC(=O)[C@H](CC(=O)O)NC(=O)[C@@H]2CCCN2C(C)=O)C(=O)NCC(=O)N2CCC[C@H]2C(=O)N[C@@H](C)C(=O)N[C@@H](C)C(=O)N[C@@H](CO)C(=O)N[C@@H]([C@@H](C)CC)C(=O)N1)[C@@H](C)CC)C(C)C)C(N)=O` [Helicon H328], for which the “ternary complex formation with CHIP and PPIA, of the expected response” value in test [2] is recorded as 11%.

For `Cc1ncsc1-c1ccc(CNC(=O)[C@@H]2C[C@@H](O)CN2C(=O)[C@@H](NC(=O)C2(C#N)CC2)C(C)(C)C)cc1` [VH298, (2S,4R)−1-((S)−2-(1-Cyanocyclopropanecarboxamido)−3,3-dimethylbutanoyl)−4-hydroxy-N-(4-(4-methylthiazol-5-yl)benzyl)pyrrolidine-2-carboxamide], the “competition with HXC78 for binding VHL-ELOBC” value in test [3] is on record as “potently competes”.
